Source: ChEMBL document CHEMBL1201862, “PubChem BioAssay data set” (2004)
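Five compound concentrations were applied to cells in 96-well plates for 48 hours; endpoints were derived by simple linear interpolation of the resulting dose-response curve. GI50 = concentration required for 50% inhibition of growth.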 Active and inactive are the calls of the source. No stated cut-off is given here; in the data, active = GI50 up to about 1.1 µM and inactive = higher.

Legend:
Assay in all cases: NCI anticancer screen, dose series, 48 h
SN12C = tested on: SN12C
M14 = tested on: M14
UO-31 = tested on: UO-31
SNB-19 = tested on: SNB-19
DLD-1 = tested on: DLD-1
SK-OV-3 = tested on: SK-OV-3
KM12 = tested on: KM12
SK-MEL-28 = tested on: SK-MEL-28
786-0 = tested on: 786-0
K562 = tested on: K562
HCT-116 = tested on: HCT-116
KM-20L2 = tested on: KM-20L2
CCRF-CEM = tested on: CCRF-CEM
MOLT-4 = tested on: MOLT-4
LOX IMVI = tested on: LOX IMVI
NCI-H522 = tested on: NCI-H522
UACC-62 = tested on: UACC-62
SF-295 = tested on: SF-295
IGROV-1 = tested on: IGROV-1
SW-620 = tested on: SW-620
NCI-H460 = tested on: NCI-H460
OVCAR-8 = tested on: OVCAR-8
TK-10 = tested on: TK-10
A549 = tested on: A549
DMS-273 = tested on: DMS-273
OVCAR-3 = tested on: OVCAR-3
EKVX = tested on: EKVX
NCI-H226 = tested on: NCI-H226
OVCAR-4 = tested on: OVCAR-4
HT-29 = tested on: HT-29
M19-MEL = tested on: M19-MEL
OVCAR-5 = tested on: OVCAR-5
SNB-78 = tested on: SNB-78
SF-268 = tested on: SF-268
HCC 2998 = tested on: HCC 2998
U-251 = tested on: U-251
CAKI-1 = tested on: CAKI-1
SK-MEL-2 = tested on: SK-MEL-2
RPMI-8226 = tested on: RPMI-8226
Malme-3M = tested on: Malme-3M
SK-MEL-5 = tested on: SK-MEL-5
RXF 393 = tested on: RXF 393
HL-60 = tested on: HL-60
HOP-62 = tested on: HOP-62
UACC-257 = tested on: UACC-257
HOP-92 = tested on: HOP-92
ACHN = tested on: ACHN
HCT-15 = tested on: HCT-15
SF-539 = tested on: SF-539
A498 = tested on: A498
DMS-114 = tested on: DMS-114
NCI-H23 = tested on: NCI-H23
SNB-75 = tested on: SNB-75
LXFL 529 = tested on: LXFL 529
COLO 205 = tested on: COLO 205
SR = tested on: SR

Measured: GI50

CCN(CC)C(=O)CNC(=O)OC(C)(C)C
inactive: SN12C > 100 µM | M14 > 100 µM | UO-31 > 100 µM | SNB-19 > 100 µM | DLD-1 > 100 µM | SK-OV-3 > 100 µM | KM12 > 100 µM | SK-MEL-28 > 100 µM | 786-0 > 100 µM | K562 > 100 µM | HCT-116 > 100 µM | KM-20L2 > 100 µM | CCRF-CEM > 100 µM | MOLT-4 > 100 µM | LOX IMVI > 100 µM | NCI-H522 > 100 µM | UACC-62 > 100 µM | SF-295 > 100 µM | IGROV-1 > 100 µM | SW-620 > 100 µM | NCI-H460 > 100 µM | OVCAR-8 > 100 µM | TK-10 > 100 µM | A549 > 100 µM | DMS-273 > 100 µM | OVCAR-3 > 100 µM | EKVX > 100 µM | NCI-H226 > 100 µM | OVCAR-4 > 100 µM | HT-29 > 100 µM | M19-MEL > 100 µM | OVCAR-5 > 100 µM | SNB-78 > 100 µM | SF-268 > 100 µM | HCC 2998 > 100 µM | U-251 > 100 µM | CAKI-1 > 100 µM | SK-MEL-2 > 100 µM | RPMI-8226 > 100 µM | Malme-3M > 100 µM | SK-MEL-5 > 100 µM | RXF 393 > 100 µM | HL-60 > 100 µM | HOP-62 > 100 µM | UACC-257 > 100 µM | HOP-92 > 100 µM | ACHN > 100 µM | SF-539 > 100 µM | A498 > 100 µM | DMS-114 > 100 µM | NCI-H23 > 100 µM | SNB-75 > 100 µM
> 100 µM: HCT-15

CC(C)OP(=O)(OC(C)C)/C(=N/Nc1ccccc1[N+](=O)[O-])NCCN/C(=N\Nc1ccccc1[N+](=O)[O-])P(=O)(OC(C)C)OC(C)C
inactive: SN12C 43.7 µM | M14 36.1 µM | UO-31 29.3 µM | SNB-19 38 µM | DLD-1 34 µM | KM12 40.3 µM | SK-MEL-28 39.4 µM | 786-0 33 µM | K562 35.3 µM | HCT-116 27.9 µM | KM-20L2 24.9 µM | CCRF-CEM 22.2 µM | MOLT-4 43.2 µM | LOX IMVI 30.2 µM | NCI-H522 31.8 µM | UACC-62 19.2 µM | IGROV-1 27.9 µM | SW-620 35.5 µM | NCI-H460 > 10 µM | OVCAR-8 39.5 µM | TK-10 39.1 µM | A549 29.4 µM | LXFL 529 19.5 µM | DMS-273 35.2 µM | OVCAR-3 42.7 µM | EKVX 28.9 µM | NCI-H226 24.4 µM | OVCAR-4 48.1 µM | M19-MEL 34.9 µM | OVCAR-5 24.2 µM | SF-268 67.1 µM | HCC 2998 39.4 µM | U-251 29.6 µM | CAKI-1 25.6 µM | SK-MEL-2 19.6 µM | RPMI-8226 28.2 µM | Malme-3M 23.1 µM | SK-MEL-5 > 10 µM | HL-60 23.7 µM | HOP-62 52.8 µM | UACC-257 29.2 µM | HOP-92 32 µM | ACHN 30.1 µM | SF-539 38.1 µM | A498 49.5 µM | DMS-114 31.7 µM | NCI-H23 14.5 µM | COLO 205 25.2 µM | SNB-75 89.3 µM
30.3 µM: HCT-15

O=C1c2ccccc2C(=O)c2c1ccc1c2N=C(c2ccc(F)cc2)CC(c2ccc(Cl)c(Cl)c2)N1 (centres undefined)
inactive: SN12C 17.3 µM | M14 18.2 µM | UO-31 10.8 µM | SNB-19 13.1 µM | DLD-1 12.9 µM | SK-OV-3 12.7 µM | KM12 6 µM | SK-MEL-28 19.3 µM | K562 7.16 µM | HCT-116 11.5 µM | KM-20L2 15.7 µM | CCRF-CEM 2.13 µM | MOLT-4 7.43 µM | LOX IMVI 3.94 µM | NCI-H522 7.29 µM | UACC-62 12.1 µM | SF-295 14.6 µM | IGROV-1 10.3 µM | SW-620 6.11 µM | NCI-H460 16.9 µM | OVCAR-8 13.4 µM | TK-10 13.8 µM | A549 18.4 µM | LXFL 529 16 µM | EKVX 3.96 µM | NCI-H226 22.2 µM | OVCAR-4 19 µM | HT-29 13.5 µM | M19-MEL 17.2 µM | OVCAR-5 14.7 µM | SNB-78 19.2 µM | SF-268 15.2 µM | HCC 2998 13.6 µM | U-251 12.1 µM | CAKI-1 3.27 µM | SK-MEL-2 14 µM | RPMI-8226 3.15 µM | SK-MEL-5 15.6 µM | HL-60 3.94 µM | HOP-62 22 µM | UACC-257 23.7 µM | HOP-92 22.7 µM | ACHN 13.9 µM | SF-539 19.3 µM | SR 5.93 µM | A498 19.5 µM | DMS-114 10.1 µM | NCI-H23 16.6 µM | COLO 205 18.1 µM | SNB-75 20.5 µM
5.81 µM: HCT-15
